Values of other authors as cited in patent publication US20110021626A1, “ENCAPSULATION OF VITAMIN C INTO WATER SOLUBLE DENDRIMERS” (CENTRE NATIONAL DE LA RECHERCHE SCIENTIFIQUE - CNRS, priority 2008, published 2011).

Conditions: at 25° C. in water

pKa: 4,11
SMILES: O=C1O[C@H]([C@@H](O)CO)C(O)=C1O [ascorbic acid]
